Where two headings read alike, the source gives them in different places. Peptide text beside a SMILES is read from it. * marks the point of attachment. X3 = O=C(Cn1cc(-c2ccc([N+](=O)[O-])cc2)nn1)*; X4 = O=C(Cn1cc(-c2c(O)ccc3ccccc23)nn1)*; X2 = COc1ccc(OC)c(-c2cn(CC(=O)*)nn2)c1; X1 = O=C(Cn1cc(-c2ccc(Cl)cc2Cl)nn1)*
How the values were obtained:
Mcl-1 = target: T1, Mcl-1 (UniProt P97287+Q07820); experiment: Competitive fluorescence anisotropy (FA) assay, FITC-NoxaB displacement from Mcl-1; format: binding; conditions: SEM, read-out: FA IC50
T1 construct: amino acid residues 152-189 of mouse Mcl-1 fused with amino acid residues 209-327 of; 8 x His (N); TEV site (N); made in house; host or cells: E. coli BL21(DE3)pLysS
Procedure: Fmoc, 9-fluorenylmethylcarbony. IC50 determined by non -linear regression of at least three experiments.
4. Fluorescence Anisotropy Binding Assay
Fluorescence anisotropy was carried out on a BMG Labtech clariostar microplate reader with a fluorescence anisotropy optic measuring at 482/530 nm. Low -binding, Corning 96 -well black plates were used and all reagents used in the assay were biological grade and purchased from Sigma Aldrich and Novabioche m. All solutions were made using MilliQ water .
Anisotropy values were automatically calculated using the following formula […]
Where r = anisotropy, l a = parallel emission light, lb = perpendicular emission light and I = total […]
KD was determined using GraphPad Prism Version 6.0 software, using the One Site – Total binding […]
Where Bmax is the maximum specific binding, KD is the equilibrium binding constant, and NS is the slope of nonspecific binding. […]
IC50 was determined using GraphPad Prism Version 6.0 software, using a four-parameter logistic model, according to precedent from Ottmann and co-workers.[5] Errors are the transformed greater extreme of the standard error. […]
For binding each well contained 10 µL of Mcl -1 protein in 10-fold dilutions (0.37 pM to 3.7 µM) […]
protein were dissolved in PBS: 0.05% Tween -20 buffer at pH 7.4. Reagents were incubated for 30 min at room temperature prior to reading. Bubbles were removed and 8 data points were generated.
Figure S 1: Fluorescence Anisotropy direct titration.
To confirm reproducibility of
(µ) and standard deviations (σ) were inputted into the following equation:
Inhibition screens were carried out using 10 nM Mcl -1, 5 nM fluorescently-tagged peptide and 100 µM of inhibitor. Compounds were dissolved in DMSO. […]
control (DMSO) were used to define the mini mum and maximum values and ensure the assay was […]
(1 picture or pasted object on this page, not shown here) […]
Bubbles were removed and 8 data points were generated. […]

MiaPaCa-2 cells = experiment: MTS cytotoxicity assay, MiaPaCa-2; format: cell-based; conditions: 37 °C, triplicate, at least three experiments, errors = transformed greater extreme of standard error, read-out: MiaPaCa-2 cell growth inhibition IC50
Procedure: (§1) CUSTOM_[…] ("<1>=[N+]",("charge", 0, 2)) […]
(§2) CUSTOM_[…] ("<1>=[N]=[N]",("bond",1,(2,3))) […]
(§3) CUSTOM_[…] ("<1>([C]=[C])=[N][N]",("bond",1,(3,5))) […]
(§4) The MiaPaCa-2 cell line, BxPC-3 cell line and AsPC-1 cell line were purchased from the European Collection of Cell Cultures (ECACC, Porton Down, UK). MiaPaCa-2 cells were cultured in DMEM media with 2 mM L-glutamine, 100 U/mL penicillin, 100 µg/mL streptomycin and 10% FCS.
(§5) BxPC-3 cells and AsPC-1 cells were cultured in RPMI-1640 media containing 2 mM L-glutamine, 100 U/mL penicillin, 100 µg/mL streptomycin and 10% FCS. Cells were sub-cultured twice weekly and maintained at 37 °C and 5% CO2.
(§6) The anti-proliferative activity of the compounds studied was assessed by MTS assay (Promega) following the manufacturer’s instructions. Cells were seeded at 5 x 103 / 100 μL in a 96-well plate and left untreated or treated with DMSO (vehicle control), or compounds 1-4 (100 μM – […], in well concentration) in triplicate for 72 h at 37 °C with 5% CO2. Following this, MTS assay reagent was added to each well and the plates incubated for 4 h at 37 °C with 5% CO2. The absorbance was measured at 492 nm using the BMG Labtech POLARstarOPTIMA microplate reader. […]

BxPC-3 cells = experiment: MTS cytotoxicity assay, BxPC-3; format: cell-based; conditions: 37 °C, triplicate, at least three experiments, errors = transformed greater extreme of standard error, read-out: BxPC-3 cell growth inhibition IC50
Procedure: as §1, §2, §3, §4, §5, §6

AsPC-1 cells = experiment: MTS cytotoxicity assay, AsPC-1; format: cell-based; conditions: 37 °C, triplicate, at least three experiments, errors = transformed greater extreme of standard error, read-out: AsPC-1 cell growth inhibition IC50
Procedure: as §1, §2, §3, §4, §5, §6

[1] = Table 2, inhibition of binding of 5 nM FITC-NoxaB to 10 nM Mcl-1, PBS, 0.05% Tween-20, pH 7.4, non-linear regression of at least three experiments, errors = transformed greater extreme of standard error
[2] = Table S2, binding inhibition of FITC-NoxaB to Mcl-1, small molecules not tested against cell lines, at least three experiments, errors = transformed greater extreme of standard error

T1 sequence (P97287 152-189 limits assumed): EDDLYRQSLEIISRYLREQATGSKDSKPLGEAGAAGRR
T1 sequence (Q07820 209-327 limits assumed): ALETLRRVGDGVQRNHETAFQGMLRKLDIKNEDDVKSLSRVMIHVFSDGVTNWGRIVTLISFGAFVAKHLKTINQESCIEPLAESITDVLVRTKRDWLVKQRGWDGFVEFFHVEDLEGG

For `CC[C@H](C)[C@H](NC(=O)[C@H](CCCNC(=N)N)NC(=O)[C@H](CCCNC(=N)N)NC(=O)[C@H](CC(C)C)NC(=O)[C@H](CCC(N)=O)NC(=O)[C@H](C)NC(=O)[C@H](C)NC(C)=O)C(=O)NCC(=O)N[C@@H](CC(=O)O)C(=O)N[C@@H](Cc1cn(Cc2ccccc2F)nn1)C(N)=O` [Compound 2], which IC50 (Mcl-1) is on record?
Its IC50 is 400 ± 300 nM.

Which IC50 (Mcl-1) does the source give for `CC[C@H](C)[C@H](NC(=O)[C@H](CCCNC(=N)N)NC(=O)[C@H](CCCNC(=N)N)NC(=O)[C@H](CC(C)C)NC(=O)[C@H](CCC(N)=O)NC(=O)[C@H](C)NC(=O)[C@H](C)NC(C)=O)C(=O)NCC(=O)N[C@@H](CC(=O)O)C(=O)N[C@@H](Cc1cn(Cc2ccccc2)nn1)C(N)=O` [Compound 3] here?
Its IC50 is 700 ± 800 nM.

`CC[C@H](C)[C@H](NC(=O)[C@H](CCCNC(=N)N)NC(=O)[C@H](CCCNC(=N)N)NC(=O)[C@H](CC(C)C)NC(=O)[C@H](CCC(N)=O)NC(=O)[C@H](C)NC(=O)[C@H](C)NC(C)=O)C(=O)NCC(=O)N[C@@H](CC(=O)O)C(=O)N[C@@H](Cc1cn(CC(=O)O)nn1)C(N)=O` [Compound 4] was tested. Which IC50 (Mcl-1) did it give?
Its IC50 is 5800 ± 4600 nM.

How did the IC50 (Mcl-1) turn out when `COc1ccc(OC)c(-c2cn(CC(=O)N[C@@H](CCCCN)C(=O)N[C@H](C(=O)N[C@@H](CC(N)=O)C(=O)N[C@@H](CC(C)C)C(=O)N[C@@H](CCCNC(=N)N)C(=O)N[C@@H](CCC(N)=O)C(=O)N[C@@H](CCCCN)C(=O)N[C@@H](CC(C)C)C(=O)N[C@@H](CC(C)C)C(=O)N[C@@H](CC(N)=O)C(N)=O)C(C)C)nn2)c1` [Compound 9] (X2-KVNLRQKLLN-NH2) was run?
Its IC50 is 100 ± 100 nM.

Which IC50 (Mcl-1) does the source give for `CC(C)C[C@H](NC(=O)[C@H](CC(C)C)NC(=O)[C@H](CCCCN)NC(=O)[C@H](CCC(N)=O)NC(=O)[C@H](CCCNC(=N)N)NC(=O)[C@H](CC(C)C)NC(=O)[C@H](CC(N)=O)NC(=O)[C@@H](NC(=O)[C@H](CCCCN)NC(=O)Cn1cc(-c2ccc([N+](=O)[O-])cc2)nn1)C(C)C)C(=O)N[C@@H](CC(N)=O)C(N)=O` [Compound 11] (X3-KVNLRQKLLN-NH2) here?
The IC50 was 3500 ± 1500 nM.

How did the IC50 (Mcl-1) turn out when `CC(C)C[C@H](NC(=O)[C@H](CC(C)C)NC(=O)[C@H](CCCCN)NC(=O)[C@H](CCC(N)=O)NC(=O)[C@H](CCCNC(=N)N)NC(=O)[C@H](CC(C)C)NC(=O)[C@H](CC(N)=O)NC(=O)[C@@H](NC(=O)[C@H](CCCCN)NC(=O)Cn1cc(-c2c(O)ccc3ccccc23)nn1)C(C)C)C(=O)N[C@@H](CC(N)=O)C(N)=O` [Compound 13] (X4-KVNLRQKLLN-NH2) was run?
Its IC50 is 8200 ± 1900 nM.

`CC(C)C[C@H](NC(=O)[C@H](CC(C)C)NC(=O)[C@H](CCCCN)NC(=O)[C@H](CCC(N)=O)NC(=O)[C@H](CCCNC(=N)N)NC(=O)[C@H](CC(C)C)NC(=O)[C@H](CC(N)=O)NC(=O)[C@@H](NC(=O)[C@H](CCCCN)NC(=O)Cn1cc(-c2ccc(Cl)cc2Cl)nn1)C(C)C)C(=O)N[C@@H](CC(N)=O)C(N)=O` [Compound 14] (X1-KVNLRQKLLN-NH2) was tested. Which IC50 (Mcl-1) did it give?
The IC50 was 8300 ± 3600 nM.

How did the IC50 (MiaPaCa-2 cells; 72 h) turn out when `Fc1ccccc1Cn1cc(C2=CCCCC2)nn1` [Compound 19] was run?
Its IC50 is over 100000 nM.

What about the IC50 (BxPC-3 cells; 72 h, SEM) of the same molecule?
Its IC50 is 21600 ± 8830 nM.

And the IC50 (Mcl-1; [1])?
The IC50 was 217 ± 58 nM.

What about the IC50 (AsPC-1 cells; 72 h) of the same molecule?
Its IC50 is over 100000 nM.

For `C1=C(c2cn(Cc3ccccc3)nn2)CCCC1` [Compound 22, 1-benzyl-4-(cyclohex-1-en-1-yl)-1H-1,2,3-triazole], which IC50 (MiaPaCa-2 cells; Homo sapiens, MIA PaCa-2, 72 h) is on record?
The IC50 was over 100000 nM.

What about the IC50 (BxPC-3 cells; Homo sapiens, BXPC-3, 72 h) of the same molecule?
Its IC50 is over 100000 nM.

And the IC50 (Mcl-1)?
The IC50 was 1680 ± 694 nM.

What about the IC50 (AsPC-1 cells; Homo sapiens, ASPC1, 72 h) of the same molecule?
The IC50 was over 100000 nM.

How did the IC50 (MiaPaCa-2 cells; 72 h, SEM) turn out when `COC(=O)[C@H](Cc1cn(Cc2ccccc2C)nn1)NC(=O)OCC1c2ccccc2-c2ccccc21` [Compound 24, methyl (S)-2-((((9H-fluoren-9-yl)methoxy)carbonyl)amino)-3-(1-(2-methylbenzyl)-1H-1,2,3-triazol-4-yl)propanoate] was run?
The IC50 was 2140 ± 560 nM.

And the IC50 (BxPC-3 cells; 72 h, SEM)?
The IC50 was 10700 ± 2720 nM.

What about the IC50 (Mcl-1; [1]) of the same molecule?
The IC50 was 2210 ± 877 nM.

And the IC50 (AsPC-1 cells; 72 h, SEM)?
The IC50 was 2280 ± 1440 nM.

Which results are given for `Clc1ccc(-c2cn(Cc3ccccc3)nn2)c(Cl)c1` [Compound 25, 1-benzyl-4-(2,4-dichlorophenyl)-1H-1,2,3-triazole]?
IC50 (MiaPaCa-2 cells; Homo sapiens, MIA PaCa-2, 72 h): > 100000 nM; IC50 (BxPC-3 cells; Homo sapiens, BXPC-3, 72 h): > 100000 nM; IC50 (Mcl-1): 5500 ± 3920 nM; IC50 (AsPC-1 cells; Homo sapiens, ASPC1, 72 h): > 100000 nM

With `CCc1ccc(-c2cn(CC(=O)O)nn2)cc1` [Compound S10] as the molecule, how does the IC50 (Mcl-1; [2]) read?
The IC50 was 497 ± 367 nM.

With `O=C(O)Cn1cc(-c2ccc([N+](=O)[O-])cc2)nn1` [Compound S11] as the molecule, how does the IC50 (Mcl-1; [2]) read?
Its IC50 is 561 ± 130 nM.

Which IC50 (Mcl-1; [2]) does the source give for `Cc1ccc(-c2cn(CC(=O)O)nn2)c(C)c1` [Compound S12] here?
The IC50 was 766 ± 484 nM.

— PMC5577515, “Peptide‐Directed Binding for the Discovery of Modulators of α‐Helix‐Mediated Protein–Protein Interactions: Proof‐of‐Concept Studies with the Apoptosis Regulator Mcl‐1” (Angewandte Chemie (International Ed. in English), 2017)
